Measurements as given in US20230063321A1, “Methods for Treating Inflammatory Bowel Diseases with alpha4beta7 Integrin Antagonists” (Protagonist Therapeutics, Inc., priority 2020, published 2023).
Where “and” joins values, the source holds several entries; their conditions need not be identical. Identical values can stand only once. Like-named read-outs stand apart in the source and are kept apart here. Marks after values point to notes of the source that are not given here. Numbered stars: 1 amine (or outer) side, 2 acyl side, 3 side chain; on linkers, the order of the positions; unused ones are H or OH. Bridge positions count the residues as written; N and C are the ends. Square brackets hold non-standard residues; d marks the D form. Peptide text beside a SMILES is read from it. I, II: the chains in the order shown. ξ: configuration not given here. Phe(4-tBu) = CC(C)(C)c1ccc(C[C@H](N)C(=O)O)cc1; Diglycolyl = O=C(COCC(=O)[*:2])[*:1]; NMeR = CN[C@@H](CCCNC(=N)N)C(=O)O; β3hE = N[C@@H](CCC(=O)O)CC(=O)O; Thr(3ξ) = CC(O)[C@H](N)C(=O)O; X1 = O=C(c1ccccc1C[*:2])[*:1]; Pen = CC(C)(S)[C@H](N)C(=O)O

What was measured:
[1] = biological target: T1, α4β7 integrin (Homo sapiens, UniProt P13612+P26010); test: Inhibition of MAdCAM1-mediated CD4+ T cell proliferation (plate bound anti-CD3 + MAdCAM1); type: cell-based
T1 construct: endogenous in cells; host or cells: primary human CD4+ T cells enriched from PBMCs of healthy donors
Description: (§1) PBMCs were purified from healthy human donors and enrichment of CD4+ T cells was performed. […] Phenotype, distribution of T-helper (Th) subsets and % RO analyses were conducted by flow cytometry of freshly stained live samples.

[2] = tested on: primary CD4+ T-cells; test: Flow cytometry phenotype of proliferated CD4+ T-cells (Th subsets, surface β7); type: cell-based, human
Description: as §1

[3] = biological target: T2, α4β7 (Mus musculus, UniProt P26011+Q00651); test: α4β7 receptor occupancy in whole blood and Peyer's patches after oral dosing; type: in vivo, C57BL/6 mice
T2 construct: mice were euthanized and whole blood/plasma and Peyer's patches were collected; from tissue; host or cells: whole blood and Peyer's patches of C57BL/6 mice
Description: One hour following dosing, mice were euthanized and whole blood/plasma and Peyer's patches were collected. Peyer's patches were dispersed in 1 mL RPMI medium with 2% FBS without washing step. Whole blood and single cell suspension of Peyer's patches (100 uL out of 1 mL total) were submitted for flow cytometry to determine α4β7 receptor occupancy. % RO=(1−(% positive test sample/% positive median vehicle control))*100. Plasma and Peyer's patches dispersed in single cell suspension (500 uL of 1 mL total) were also analyzed for drug exposure.

[4] = biological target: T3, α4β7 (Homo sapiens, UniProt P13612+P26010); test: α4β7 internalization / surface expression by flow cytometry; type: cell-based
T3 construct: endogenous in cells
Source text: Blood samples from human donors were obtained from the Stanford Blood Center (Stanford, Calif.) under an RB-approved research protocol. Blood was drawn into BD Vacutainer sodium heparin blood collection tubes (BD Biosciences, Cat #362753). Peripheral blood mononuclear cells (PBMCs) were isolated from blood using a SepMate-50 tube and LymphoPrep per the manufacturer's protocol. CD4^+ T memory cells were enriched after PBMC isolation, using an EasySep kit (StemCell Technologies) per the manufacturer's protocol.
After incubation, an aliquot of cells from each reaction was stained for α4β7 expression.
(§2) After incubation, cells were washed extensively to remove excess peptide. For each reaction, an aliquot of cells was stained for α4β7 expression, while a separate aliquot was tested for adhesion to MAdCAM1.
An aliquot of cells were collected before and 24 h post peptide addition and stained for α4β7 expression. Afterwards, cells were extensively washed to remove excess peptide and incubated in fresh complete culture medium (without MnCl2) for an additional seven days. On day 1, 2, 4, 5, and 7 days after peptide washout, aliquots were stained for α4β7 expression.
Following peptide incubation, an aliquot of each reaction was stained for surface expression of α4β7 in preparation for flow cytometry. Cells were stained at 4° C. for 30 minutes, washed twice in DPBS containing 0.5% BSA (PBS/BSA), incubated with streptavidin BV421 (diluted 1:1000) at 4° C. for 30 minutes, washed twice in PBS/BSA, and then resuspended in PBS/BSA for analysis. Where relevant, a “fluorescence minus one” (FMO) sample was used as the staining control.
Samples were analyzed by flow cytometry on a BD (Franklin Lakes, N.J.) FACSVerse flow cytometer equipped with the following lasers: 405 nm (violet), 488 nm (blue), 561 nm (yellow-green), and 640 nm (red). CD4^+ T memory cells were identified as CD4^+, […], CD197^+ lymphocytes. α4β7 expression within CD4^+ T memory cells was identified based on staining with the Vedolizumab BV421 complex; staining was analyzed using BD FACSuite software, version 1.0.5. Where applicable, values were normalized to no-peptide controls and expressed as percentages to permit assessment of changes in the indicated parameter. Data were plotted and analyzed using Prism software (version 7; GraphPad, La Jolla, Calif.).

[5] = biological target: T4, α4β7 / MAdCAM1 (Homo sapiens, UniProt P13612+P26010); test: Adhesion of CD4+ T memory cells to MAdCAM1; type: cell-based
T4 construct: endogenous in cells
Description: as §2

[6] = biological target: T5, memory CD4+ T cells expressing α4β7 / recombinant MAdCAM1 (Homo sapiens, UniProt P13612+P26010); test: Potency against memory CD4+ T cells expressing α4β7 to recombinant MAdCAM1; type: cell-based; conditions: cells isolated from human PBMCs
T5 construct: endogenous in cells

[7] = Oral bioavailability in mice; conditions: mouse, in vivo
[8] = Stability of dosing solutions; type: physicochemical; conditions: 50 mM phosphate buffer pH 7.4, stored at 2-8° C.
Description: Dose solutions were formulated in 50 mM phosphate buffer pH 7.4 and were prepared weekly by a qualified pharmacist.

[9] = male, human, in vivo; for Ctrough: po
Description: (§3) Dose escalation proceeded from 100 mg, 300 mg, 1000 mg, 1400 mg. Subjects in the 300 mg dose cohort received treatment in the fasted state on one occasion and following a high fat meal on a second occasion in a crossover fashion. The high fat meal consisted of two eggs fried in butter, two strips of bacon, two slices of toast with butter, four ounces of hash brown potatoes and 240 ml of whole milk. During Part 1, subjects refrained from food and drink except water for 10 hours before and for four hours after dosing with the exception of subjects in the 300 mg dose cohort during the fed treatment.
(§4) Part 2 was a randomized, placebo-controlled, double-blind multiple ascending dose study in 50 male subjects divided equally into 5 cohorts. […] Doses evaluated in Part 2 included 100 mg, 300 mg and 1000 mg. During Part 2, two cohorts of subjects (100 mg and 300 mg) received food approximately 30 minutes prior to each dose and another two cohorts of subjects (300 mg and 100 mg) refrained from food for 10 hours before and for 1 hour after dosing.
(§5) Study 1: The single and multiple ascending dose phase of the study consisted of sequential dose escalations in 10 subject per dose cohort. […] Dose solutions were formulated in 50 mM phosphate buffer pH 7.4 and were prepared weekly by a qualified pharmacist.
(§6) Blood samples for pharmacokinetics were collected predose and for 48 hours postdose following single doses. In the multiple ascending dose phase, blood samples were obtained on Days 1-3 and 14-16; on Days 8 samples were obtained predose, 4, and 12 hours. On Day 10 of the MAD, subjects were required to collect all urine for the 0-6, 6-12, 12-18, and 18-24 hour intervals postdose and on Day 11 subjects were required to collect fecal samples.
(§7) The drug and internal standard were extracted from the matrix by a protein precipitation procedure. The limit of quantitation was 0.2 ng/mL, 20 ng/mL, and 100 ng/mL in plasma, urine, and feces, respectively. […] Coefficient of determinations for the calibration curves were at least 0.99 for all matrices. The interassay accuracy (% bias) ranged from −2.2% to 1.0% for plasma, −3.8% to 9.0% for urine and −5.0 to 5.2% for feces. Interassay precision (% CV) ranged from 3.7% to 7.7% for plasma, 2.8% to 7.0% for urine, and 1.2% to 5.2% for feces.
(§8) Pharmacokinetic parameters were estimated by noncompartmental methods using Phoenix WinNonlin (Certara, Princeton N.J.). Peak plasma concentration (Cmax) and time to peak plasma concentration (Tmax) were observed values. The elimination rate was estimated from the slope of the least-squares regression on the terminal log-linear phase. Area under the plasma concentration-time curve from time zero to the last quantifiable concentration (AUCt) was estimated by a linear trapezoidal method and was extrapolated to infinity (AUC∞) by dividing the last quantifiable concentration b the elimination rate.

[10] = clinical; conditions: male, human, in vivo; for AUC(0-inf): AUCinf (ng · h/mL); for AUC(0-t): AUCt (ng · h/mL); for AUC: AUCtau (ng · h/mL); for Cmax: Cmax (ng/mL)
Description: as §3, §4, §5, §6, §7, §8

[11] = Anti-CD3 + MAdCAM1 + 1 uM Compound A
[12] = Donor 1, normalized to no-peptide control
[13] = Donor 2, normalized to no-peptide control

T2 sequence (Q00651 41-1039): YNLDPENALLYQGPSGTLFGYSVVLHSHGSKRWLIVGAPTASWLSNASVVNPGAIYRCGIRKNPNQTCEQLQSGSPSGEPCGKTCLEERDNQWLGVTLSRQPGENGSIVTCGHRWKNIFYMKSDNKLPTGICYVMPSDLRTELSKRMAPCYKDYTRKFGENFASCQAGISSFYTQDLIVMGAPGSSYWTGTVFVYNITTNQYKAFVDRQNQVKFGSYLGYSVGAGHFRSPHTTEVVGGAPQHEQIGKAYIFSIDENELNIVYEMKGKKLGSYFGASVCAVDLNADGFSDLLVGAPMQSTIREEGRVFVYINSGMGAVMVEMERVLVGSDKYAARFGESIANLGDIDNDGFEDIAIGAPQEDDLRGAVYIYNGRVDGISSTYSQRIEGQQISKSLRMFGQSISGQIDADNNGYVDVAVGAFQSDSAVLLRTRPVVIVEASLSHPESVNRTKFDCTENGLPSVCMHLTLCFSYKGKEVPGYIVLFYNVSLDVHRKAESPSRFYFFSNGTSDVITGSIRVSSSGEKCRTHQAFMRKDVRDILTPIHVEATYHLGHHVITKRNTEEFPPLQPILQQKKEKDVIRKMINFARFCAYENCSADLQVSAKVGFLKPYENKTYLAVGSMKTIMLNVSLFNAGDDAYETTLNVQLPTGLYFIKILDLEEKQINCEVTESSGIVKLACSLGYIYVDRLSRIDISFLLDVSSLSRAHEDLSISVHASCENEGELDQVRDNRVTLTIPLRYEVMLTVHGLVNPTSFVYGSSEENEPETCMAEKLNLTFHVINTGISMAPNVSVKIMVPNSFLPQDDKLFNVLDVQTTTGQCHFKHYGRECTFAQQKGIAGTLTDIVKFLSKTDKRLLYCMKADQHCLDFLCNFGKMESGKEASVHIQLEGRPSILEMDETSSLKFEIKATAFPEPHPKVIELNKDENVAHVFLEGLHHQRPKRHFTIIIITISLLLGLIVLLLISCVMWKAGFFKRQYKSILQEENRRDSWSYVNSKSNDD
T2 sequence (P26011 20-806): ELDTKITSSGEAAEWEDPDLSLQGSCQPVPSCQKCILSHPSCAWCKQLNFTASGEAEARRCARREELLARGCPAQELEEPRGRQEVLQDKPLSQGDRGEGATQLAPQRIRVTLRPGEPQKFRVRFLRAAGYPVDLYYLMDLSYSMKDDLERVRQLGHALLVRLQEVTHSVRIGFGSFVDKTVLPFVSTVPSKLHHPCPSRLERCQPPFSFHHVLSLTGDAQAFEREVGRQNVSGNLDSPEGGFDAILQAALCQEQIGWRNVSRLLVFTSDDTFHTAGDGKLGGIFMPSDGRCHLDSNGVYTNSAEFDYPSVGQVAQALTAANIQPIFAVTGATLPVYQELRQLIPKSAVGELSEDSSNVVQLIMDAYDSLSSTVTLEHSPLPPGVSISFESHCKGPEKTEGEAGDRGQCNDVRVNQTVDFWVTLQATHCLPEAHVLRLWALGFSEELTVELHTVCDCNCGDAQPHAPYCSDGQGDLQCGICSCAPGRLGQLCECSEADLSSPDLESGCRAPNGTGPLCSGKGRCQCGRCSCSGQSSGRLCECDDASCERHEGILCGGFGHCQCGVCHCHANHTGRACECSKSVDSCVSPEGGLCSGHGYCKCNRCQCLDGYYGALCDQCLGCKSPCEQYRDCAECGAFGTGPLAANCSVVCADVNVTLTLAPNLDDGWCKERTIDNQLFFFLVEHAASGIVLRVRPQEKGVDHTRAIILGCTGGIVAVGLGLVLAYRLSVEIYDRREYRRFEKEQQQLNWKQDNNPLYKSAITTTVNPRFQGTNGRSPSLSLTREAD
T4 sequence (P13612 34-1032): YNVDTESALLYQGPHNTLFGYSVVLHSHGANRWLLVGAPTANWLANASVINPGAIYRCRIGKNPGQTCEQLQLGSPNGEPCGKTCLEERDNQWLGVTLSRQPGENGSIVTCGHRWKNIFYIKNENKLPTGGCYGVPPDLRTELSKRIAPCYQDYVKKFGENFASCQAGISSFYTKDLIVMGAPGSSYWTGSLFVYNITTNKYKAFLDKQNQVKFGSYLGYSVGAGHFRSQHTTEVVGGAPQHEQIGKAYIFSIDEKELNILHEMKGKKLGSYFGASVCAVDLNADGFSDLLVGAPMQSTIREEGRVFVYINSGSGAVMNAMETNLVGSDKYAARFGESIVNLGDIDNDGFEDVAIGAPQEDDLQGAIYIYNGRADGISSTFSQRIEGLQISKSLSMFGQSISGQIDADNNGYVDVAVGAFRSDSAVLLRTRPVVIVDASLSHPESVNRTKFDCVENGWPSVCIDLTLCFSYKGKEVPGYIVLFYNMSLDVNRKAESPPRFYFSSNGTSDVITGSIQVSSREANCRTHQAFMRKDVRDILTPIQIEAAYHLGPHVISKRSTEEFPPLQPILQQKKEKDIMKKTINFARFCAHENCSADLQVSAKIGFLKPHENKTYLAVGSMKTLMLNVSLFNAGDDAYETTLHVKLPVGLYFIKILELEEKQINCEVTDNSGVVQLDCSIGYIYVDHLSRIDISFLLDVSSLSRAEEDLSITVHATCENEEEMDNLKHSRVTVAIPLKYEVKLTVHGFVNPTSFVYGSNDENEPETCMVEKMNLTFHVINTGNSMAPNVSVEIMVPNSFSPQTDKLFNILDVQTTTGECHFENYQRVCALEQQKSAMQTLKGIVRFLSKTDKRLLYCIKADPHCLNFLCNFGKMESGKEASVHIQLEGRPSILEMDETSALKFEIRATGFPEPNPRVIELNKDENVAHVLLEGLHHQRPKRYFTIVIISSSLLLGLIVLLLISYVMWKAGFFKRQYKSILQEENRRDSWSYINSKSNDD
T4 sequence (P26010 20-798): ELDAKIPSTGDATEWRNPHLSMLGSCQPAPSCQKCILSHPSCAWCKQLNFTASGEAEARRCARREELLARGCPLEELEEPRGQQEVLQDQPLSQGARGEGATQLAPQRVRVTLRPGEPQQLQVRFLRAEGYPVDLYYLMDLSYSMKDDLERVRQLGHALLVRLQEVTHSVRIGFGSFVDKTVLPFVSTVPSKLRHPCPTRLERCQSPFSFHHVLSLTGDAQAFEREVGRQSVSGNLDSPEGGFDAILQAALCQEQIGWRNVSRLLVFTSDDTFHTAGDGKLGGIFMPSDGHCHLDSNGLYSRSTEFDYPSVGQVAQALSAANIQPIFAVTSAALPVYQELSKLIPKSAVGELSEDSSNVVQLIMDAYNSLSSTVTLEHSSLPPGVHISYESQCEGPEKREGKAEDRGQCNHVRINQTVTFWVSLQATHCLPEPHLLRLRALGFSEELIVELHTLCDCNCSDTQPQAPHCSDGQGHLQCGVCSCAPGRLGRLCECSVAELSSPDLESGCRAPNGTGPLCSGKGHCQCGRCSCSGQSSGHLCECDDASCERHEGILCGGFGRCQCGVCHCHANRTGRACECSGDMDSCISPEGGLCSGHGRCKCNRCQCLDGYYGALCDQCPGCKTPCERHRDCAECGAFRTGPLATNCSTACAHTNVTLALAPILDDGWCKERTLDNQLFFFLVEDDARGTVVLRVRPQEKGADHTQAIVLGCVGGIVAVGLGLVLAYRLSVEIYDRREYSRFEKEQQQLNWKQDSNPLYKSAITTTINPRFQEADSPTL
T1 sequence (P13612 34-1032): as the sequence (P13612 34-1032) above
T1 sequence (P26010 20-798): as the sequence (P26010 20-798) above
T3 sequence (P13612 34-1032): as the sequence (P13612 34-1032) above
T3 sequence (P26010 20-798): as the sequence (P26010 20-798) above
T5 sequence (P13612 34-1032): as the sequence (P13612 34-1032) above
T5 sequence (P26010 20-798): as the sequence (P26010 20-798) above

SMILES: CC(C)C[C@@H]1NC(=O)[C@H](C(C)O)NC(=O)[C@H](CC(=O)O)NC(=O)[C@H](CO)NC(=O)[C@H](CCCNC(=N)N)N(C)C(=O)c2ccccc2CSC(C)(C)[C@@H](C(=O)N[C@@H](Cc2ccc(C(C)(C)C)cc2)C(=O)N[C@@H](CCC(=O)O)CC(=O)N[C@H](CCCCNC(=O)COCC(=O)NCCCC[C@@H](NC(=O)C[C@H](CCC(=O)O)NC(=O)[C@H](Cc2ccc(C(C)(C)C)cc2)NC(=O)[C@H]2NC(=O)[C@H](CC(C)C)NC(=O)[C@H](C(C)O)NC(=O)[C@H](CC(=O)O)NC(=O)[C@H](CO)NC(=O)[C@H](CCCNC(=N)N)N(C)C(=O)c3ccccc3CSC2(C)C)C(=O)O)C(=O)O)NC1=O (stereo partly drawn) [Compound A, ((2-Benzyl)-(N-Me-R)-Ser-Asp-Thr-Leu-Pen-(Phe(4-tBlu))-(β-homo-Glu)-(D-Lys)-OH)2 (SEQ ID NO: 5) and linker-DIG diglycolic acid] (I: [NMeR]SD[Thr(3ξ)]L[Pen][Phe(4-tBu)][β3hE][dK]-OH / II: [NMeR]SD[Thr(3ξ)]L[Pen][Phe(4-tBu)][β3hE][dK]-OH; linker I:9-II:9 via Diglycolyl; linker I:N-I:6, II:N-II:6 via X1)
- IC50 [1]: 4.4 nM
- IC50 ([1]; Average, read-out: IC50): 3.5 nM
- inhibition of MAdCAM1-mediated proliferation of CD4+ T-cells ([1]; Compound A 1 uM, inactive analog 1 uM, vedolizumab 500 ng/mL, three days): completely abolished
- IC50 ([1]; Donor 7, read-out: IC50): 1.6 nM
- IC50 ([1]; Donor 8, read-out: IC50): 3.7 nM
- IC50 ([1]; Donor 9, read-out: IC50): 5.2 nM
- IC50 ([1]; Donor 11, read-out: IC50): 8 nM
- Th1-IFNγ, CD4+ T-cells [2, 11]: 15%
- Th2-IL-4, CD4+ T-cells [2, 11]: 0.7%
- Th17-IL-17A, CD4+ T-cells [2, 11]: 0.6%
- surface expression of β7 in undivided CD4+ T-cells ([2]; tested in 5 donors): lowered
- receptor occupancy in whole blood and Peyer's patches, 30 mg/kg vs 3 mg/kg dose group ([3]; PO): significantly higher
- receptor occupancy in Peyer's patches compared to whole blood ([3]; both dose groups (3 and 30 mg/kg PO)): significantly higher
- receptor occupancy at 30 mg/kg ([3]; mouse, 30 mg/kg dose): 100%
- induced internalization of α4β7, time and concentration dependence ([4]; CD4+ T memory cells, 10 nM for 0 to 48 h, 0-10 nM for 24 h): time (FIG. 15) and concentration (FIG. 16) dependent
- Maximal α4β7 expression reduction (%) [4, 12]: 53%
- Maximal α4β7 expression reduction (%) [4, 13]: 25%
- Maximal α4β7 expression reduction (%) ([4]; Mean of two donors): 39%
- additional incubation after washout until α4β7 expression recovered to control levels ([4]; human PBMCs, 10 nM 24 h then washout): 5 days and 4 to 5 days
- α4β7 expression MFI difference compared to FMO control (4219 MFI) ([4]; human PBMCs, 10 nM, 24 h): 20.6%
- α4β7 expression as measured by MFI ([4]; human PBMCs, 10 nM, 24 h, without MnCl2): 5090 MFI
- Maximal adhesion reduction (%) [5, 12]: 38%
- Maximal adhesion reduction (%) [5, 13]: 36%
- Maximal adhesion reduction (%) ([5]; Mean of two donors): 37%
- R-squared, α4β7 expression reduction vs adhesion reduction ([5]; first donor): 0.968
- R squared, α4β7 expression reduction vs adhesion reduction ([5]; second donor): 0.940
- IC50 [6]: 0.265 nM
- bioavailability [7]: < 1%
- dosing solutions demonstrated to be stable [8]: 3 months
- AUCt (ng · h/mL) ([9]; 100 mg): 12.9 ± 7.27^ ng · h/mL
- AUCinf ([9]; 300 mg): 46.3 ± 19.2 ng·h/mL
- AUCinf (ng · h/mL) ([9]; 300 mg): 43.9 ± 13.0^d ng · h/mL
- Cmax (ng/mL) ([9]; 300 mg): 4.72 ± 1.85^ ng/mL
- AUCt ([9]; 450 mg): 132 ± 106 ng·h/mL
- AUCtau ([9]; 450 mg): 72.1 ± 54.7 ng·h/mL
- Cmax ([9]; 450 mg): 5.98 ± 1.61 ng/mL
- AUCinf ([9]; 900 mg): 160 ± 96.5 ng·h/mL
- AUCt ([9]; 900 mg): 140 ± 74.4 ng·h/mL
- AUCtau ([9]; 900 mg): 140 ± 74.4 ng·h/mL
- Cmax ([9]; 900 mg): 22.8 ± 16.9 ng/mL
- Ctrough ([9]; 450 mg): 3.25 ± 3.5 ng/mL
- Ctrough ([9]; 900 mg): 1.78 ± 2.3 ng/mL
- AUC(0-inf) ([10]; 100 mg): 16.5 ng·h/mL
- AUC(0-inf) ([10]; 300 mg): 57.6 ± 23.6 ng·h/mL
- AUC(0-t) ([10]; 450 mg): 77.6 ± 37.1 ng·h/mL
- AUC ([10]; 450 mg): 41.5 ± 10.7 ng·h/mL
- Cmax ([10]; 450 mg): 9.96 ng/mL
- AUC(0-inf) ([10]; 900 mg): 176 ± 98.5 ng·h/mL
- AUC(0-t) ([10]; 900 mg): 159 ± 70.5 ng·h/mL
- AUC ([10]; 900 mg): 159 ± 70.5 ng·h/mL
- Cmax ([10]; 900 mg): 14.2 ng/mL
- AUC(0-inf) ([10]; 1000 mg): 151 ± 31.7 ng·h/mL
- AUC(0-t) ([10]; 1000 mg): 138 ± 33.7 ng·h/mL
- Cmax ([10]; 1000 mg): 15.3 ± 4.11 ng/mL
- AUC(0-inf) ([10]; 1400 mg): 260 ng·h/mL
- AUC(0-t) ([10]; 1400 mg): 257 ± 173 ng·h/mL
- Cmax ([10]; 1400 mg): 23.5 ng/mL
